Holding throughout (experiment): NCI anticancer screen, dose series, 48 h
Test [1] has as its system BT-549 breast.
Test [2] deals with DU-145 prostate.
Test [3] has as its system HCT-116 colon.
Test [4] concerns HL-60(TB) leukemia.
Test [5] relates to M14 melanoma.
The subject of test [6] is MCF7 breast.
The subject of test [7] is MDA-MB-231 breast.
The test system of test [8] is NCI-H460 lung.
The test system of test [9] is NCI-H522 lung.
The test system of test [10] is OVCAR-5 ovarian.
Test [11] deals with PC-3 prostate.
Test [12] has as its system RPMI-8226 leukemia.
In test [13] the test system is RXF 393 renal.
The test system of test [14] is SK-MEL-2 melanoma.
The subject of test [15] is SK-MEL-28 melanoma.
The subject of test [16] is SR leukemia.

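These data come from cells grown in 96-well plates and exposed to compound for 48 hours at five concentrations. The concentration for full growth arrest is given as TGI.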

With `CCOC(=O)/C=C(\C(=O)OCC)n1cc(C)c(=O)n(Cc2cn(CCCCOC(C)=O)nn2)c1=O`, the TGI in test [1] was found to be 23.1 µM; in [2] it was 37.2 µM; in test [3], 27.6 µM; in test [4], 7.32 µM; in [5], 27 µM; in test [6] it was 24.8 µM. Besides, the TGI in test [7] worked out at 34.6 µM; in test [8] it was 26 µM; in [9], 3.01 µM; in test [10], 27.1 µM; in [11] it was 36.2 µM; in test [12], 21.7 µM. The TGI in test [13] is 7.5 µM; in test [14], 36.4 µM; in test [15], 31.7 µM; in test [16] it was 14.5 µM.

Regarding `NC(N)=NS(=O)(=O)c1ccc(NNc2c3ccccc3nc3ccccc23)cc1`, the TGI in [1] was 28.5 µM; in test [2], 21.3 µM; in test [3], 32.8 µM; in [4] it was 43.9 µM; in test [5] it was 26.8 µM; in test [6], 16.8 µM. In addition, the TGI stood at 37 µM in test [7]; 23.4 µM in test [8]; 17.5 µM in test [9]; 48.2 µM in test [10]; 25.3 µM in test [11]; 44.9 µM in test [12]. Moreover, the TGI was 36 µM in test [13], 37.1 µM in test [14], 29.2 µM in [15] and 13.7 µM in test [16].

`OC(CC1CCCCN1)c1ccc2c(c1)oc1ccccc12` (configuration not stated): the TGI was more than 100 µM in test [1]; more than 100 µM in test [2]; more than 100 µM in [3]; more than 100 µM in test [4]; 45 µM in [5]; more than 100 µM in test [6]. The TGI in [7], in test [8], in test [9], in test [10], in [11] and in test [12] was more than 100 µM each time. For the same compound, the TGI in test [13], in test [14], in test [15] and in [16] was more than 100 µM each time.

Regarding `O=C(O)c1c2c(cc3c1CC(Cc1ccccc1)C3=O)CCC2` (configuration not stated), the TGI is more than 100 µM in test [1]; more than 100 µM in [2]; more than 100 µM in test [3]; 42.3 µM in [4]; more than 100 µM in test [5]; more than 100 µM in test [6]. Also, the TGI in [7], in [8], in [9], in test [10], in [11] and in [12] was more than 100 µM throughout. For the same compound, the TGI in test [13], in test [14], in [15] and in test [16] was more than 100 µM in each case.

In the case of `CC1(C)N/C(=C\[N+](=O)[O-])C(C)(C)N1O`, the TGI in [1], in test [2], in [3], in test [4], in test [5] and in [6] was more than 10 µM in each case. In addition, the TGI in test [7], in test [8], in test [9], in test [10], in [11] and in test [12] was more than 10 µM throughout. For the same compound, the TGI in test [13], in test [14], in test [15] and in test [16] was more than 10 µM each time.

For the compound `Cc1ccc(C(=O)N/N=C(\N=Nc2cccc([N+](=O)[O-])c2)c2ccc(N(CCC#N)CCC#N)cc2C)cc1`, the TGI is more than 78.5 µM in test [1]; more than 100 µM in test [2]; more than 74.8 µM in [3]; more than 43 µM in [4]; more than 67.6 µM in test [5]; more than 68.1 µM in test [6]. For the same compound, the TGI was more than 79.2 µM in test [7]; more than 100 µM in test [8]; more than 100 µM in test [9]; more than 100 µM in [10]; more than 100 µM in test [11]; more than 100 µM in [12]. Also, the TGI in [13] was 60.7 µM; in [14] it was more than 77.3 µM; in [15], more than 86.3 µM; in test [16] it was more than 100 µM.

Turning to `COc1c(=O)cc2cc[nH]c3cc[nH]c1c23`, the TGI in test [1] was more than 100 µM; in [2] it was more than 100 µM; in test [3], more than 100 µM; in [4], more than 100 µM; in test [5] it was more than 100 µM; in [6] it was 92.6 µM. For the same compound, the TGI is more than 100 µM in test [7]; more than 100 µM in test [8]; 12.1 µM in test [9]; more than 100 µM in [10]; more than 100 µM in test [11]; more than 100 µM in [12]. Further, the TGI in test [13], in test [14], in test [15] and in [16] was more than 100 µM each time.

With `COc1ccc(CC2COc3cc(OC)cc(OC)c3C2=O)cc1` (configuration not stated), the TGI in test [1] was more than 100 µM; in [2], 77.2 µM; in [3], 32.7 µM; in [4] it was more than 100 µM; in test [5] it was 78.8 µM; in test [6], more than 100 µM. The TGI in test [7] was more than 100 µM; in test [8], more than 100 µM; in test [9], 87 µM; in test [10], 76.4 µM; in test [11], more than 100 µM; in [12] it was 40.5 µM. In addition, the TGI is more than 100 µM in [13], more than 100 µM in [14], more than 100 µM in test [15] and 43.2 µM in [16].

On to `C=C(CCOC)CCC1CCCCC(CN(C)C)C1=O` (configuration not stated), for which the TGI in test [1], in test [2], in [3], in test [4], in [5] and in [6] was more than 100 µM in each case. Further, the TGI in [7], in test [8], in test [9], in test [10], in test [11] and in test [12] was more than 100 µM each time. Further, the TGI in [13], in test [14], in [15] and in test [16] was more than 100 µM in each case.

As to `COC1(OC)N=C(N)C2(C#N)C(c3ccccc3)NC3=C(CCC3)C12C#N` (configuration not stated), the TGI in test [1], in test [2], in test [3], in [4], in test [5] and in [6] was more than 100 µM throughout. Further, the TGI in test [7], in test [8], in test [9], in [10], in test [11] and in [12] was more than 100 µM throughout. Also, the TGI in test [13], in [14], in test [15] and in test [16] was more than 100 µM each time.

As to `COC(=O)C1=C(OC(=O)/C(=C/c2ccccc2)c2ccc(Cl)cc2Cl)C(C(=O)OC)[C@@]2(O)[C@@H](C(=O)OC)[C@H](C)C[C@@H]1[C@@H]2C(=O)OC` (some centres not stated), the TGI in test [1], in test [2], in [3], in test [4], in [5] and in test [6] was more than 100 µM each time. For the same compound, the TGI in test [7], in test [8], in [9], in test [10], in test [11] and in test [12] was more than 100 µM each time. In addition, the TGI in test [13], in test [14], in [15] and in [16] was more than 100 µM each time.

With `NC(=Nc1ccccc1Cl)c1ccccc1N`, the TGI in test [1], in [2], in test [3], in [4], in [5] and in [6] was more than 100 µM throughout. Besides, the TGI in test [7], in test [8], in test [9], in test [10], in test [11] and in test [12] was more than 100 µM each time. The TGI in [13], in test [14], in [15] and in test [16] was more than 100 µM each time.

For the origin of these results see PubChem BioAssay (NCI).
